# Test results from US9221907B2, “Anti-GPR49 monoclonal antibodies” (Bionomics Inc., priority 2011, dated 2015).
# System: colon tumor cells re-implanted in secondary recipients
# Assay: Secondary transplant of GPR49 mAb+irinotecan treated tumor cells
# Type: in vivo, mouse
# Details: 140 day follow-up
# Description: Isolated tumor cells from control or GPR49 mAb+irinotecan treated tumors from the in vivo study outlined in Example 3 were harvested, pooled, dissociated and re-implanted in a limiting dilution secondary transplant assay to measure cancer stem cell frequency. For each treatment group, 8 mice were implanted with 10, 30, 100 cells. […]
smiles,measurement,value
CCc1c2c(nc3ccc(OC(=O)N4CCC(N5CCCCC5)CC4)cc13)-c1cc3c(c(=O)n1C2)COC(=O)[C@]3(O)CC [Irinotecan],mice with tumors,7/8
